biological target: EGFR (Homo sapiens, UniProt P00533); assay: EGFR assay (cellular ELISA, NIH 3T3/C7 cells); type: cell-based; design: expressed in transfected cells; host or cells: NIH 3T3/C7; conditions: read-out: cell EGF IC50
Protocol: EGF Receptor kinase activity in cells genetically engineered to express human EGF-R can be measured as described below:
Materials and Reagents. • a. […] 05-101 (UBI) (a monoclonal antibody recognizing an EGFR extracellular domain). • c. Anti-phosphotyosine antibody (anti-Ptyr) (polyclonal). • d. Detection antibody: Goat anti-rabbit IgG horse radish peroxidase conjugate, TAGO, Inc. Burlingame, Calif. • e. TBST buffer:
• Keep solution in dark at 4° C. until used. • h. Stock reagents of:
Pre-coat ELISA Plate • 1. […] Coated plates are good for up to 10 days when stored at 4° C. • 2. On day-of use, remove coating buffer and replace with blocking buffer (5% Carnation Instant NonFat Dry Milk in PBS). Incubate the plate, shaking, at room temperature (about 23° C. to 25° C.) for 30 minutes. Just prior to use, remove blocking buffer and wash plate 4 times with TBST buffer.
Seeding Cells • 1. […] Choose dishes having 80-90% confluence for the experiment. Trypsinize cells and stop reaction by adding 10% CS DMEM medium. Suspend cells in DMEM medium (10% CS DMEM medium) and centrifuge once at 1000 rpm at room temperature for 5 minutes. • 3. Resuspend cells in seeding medium (DMEM, 0.5% bovine serum), and count the cells using trypan blue. Viability above 90% is acceptable. Seed cells in DMEM medium (0.5% bovine serum) at a density of 10,000 cells per well, 100 μl per well, in a 96 well microtiter plate. Incubate seeded cells in 5% CO2 at 37° C. for about 40 hours.
Assay Procedures. • 1. Check seeded cells for contamination using an inverted microscope. Dilute test compounds stock (10 mg/ml in DMSO) 1:10 in DMEM medium, then transfer 5 μl to a test well for a test compounds drug dilution of 1:200 and a final DMSO concentration of 1%. Control wells receive DMSO alone. Incubate in 5% CO2 at 37° C. for one hour. • 2. Prepare EGF ligand: dilute stock EGF in DMEM so that upon transfer of 10 μl dilute EGF (1:12 dilution), 25 nM final concentration is attained. • 3. Prepare fresh 10 ml HNTG* sufficient for 100 μl per well wherein HNTG* comprises: HNTG stock (2.0 ml), milli-Q H2O (7.3 ml), EDTA, 100 mM, pH 7.0 (0.5 ml), Na3VO4 0.5 M (0.1 ml) and Na4(P2O7), 0.2 M (0.1 ml). • 4. Place on ice. • 5. After two hours incubation with drug, add prepared EGF ligand to cells, 10 μl per well, to yield a final concentration of 25 nM. Control wells receive DMEM alone. Incubate, shaking, at room temperature, for 5 minutes. • 6. Remove test compound, EGF, and DMEM. Wash cells twice with PBS. Transfer HNTG* to cells, 100 μl per well. Place on ice for 5 minutes. Meanwhile, remove blocking buffer from other ELISA plate and wash with TBST as described above. • 7. With a pipette tip securely fitted to a micropipettor, scrape cells from plate and homogenize cell material by repeatedly aspirating and dispensing the HNTG* lysis buffer. Transfer lysate to a coated, blocked, and washed ELISA plate. Incubate shaking at room temperature for one hour. • 8. Remove lysate and wash 4 times with TBST. Transfer freshly diluted anti-Ptyr antibody to ELISA plate at 100 μl per well. Incubate shaking at room temperature for 30 minutes in the presence of the anti-Ptyr antiserum (1:3000 dilution in TBST). • 9. Remove the anti-Ptyr antibody and wash 4 times with TBST. Transfer the freshly diluted TAGO 30 anti-rabbit IgG antibody to the ELISA plate at 100 μl per well. Incubate shaking at room temperature for 30 minutes (anti-rabbit IgG antibody: 1:3000 dilution in TBST). • 10. Remove detection antibody and wash 4 times with TBST. Transfer freshly prepared ABTS/H2O2 solution to ELISA plate, 100 μl per well. Incubate at room temperature for 20 minutes. ABTS/H2O2 solution: 1.2 μl 30% H2O2 in 10 ml ABTS stock. • 11. Stop reaction by adding 50 μl 5N H2SO4 (optional), and determine O.D. at 410 nm. • 12. The maximal phosphotyrosine signal is determined by subtracting the value of the negative controls from the positive controls. […]

Chain of EGFR (P00533 25-1210): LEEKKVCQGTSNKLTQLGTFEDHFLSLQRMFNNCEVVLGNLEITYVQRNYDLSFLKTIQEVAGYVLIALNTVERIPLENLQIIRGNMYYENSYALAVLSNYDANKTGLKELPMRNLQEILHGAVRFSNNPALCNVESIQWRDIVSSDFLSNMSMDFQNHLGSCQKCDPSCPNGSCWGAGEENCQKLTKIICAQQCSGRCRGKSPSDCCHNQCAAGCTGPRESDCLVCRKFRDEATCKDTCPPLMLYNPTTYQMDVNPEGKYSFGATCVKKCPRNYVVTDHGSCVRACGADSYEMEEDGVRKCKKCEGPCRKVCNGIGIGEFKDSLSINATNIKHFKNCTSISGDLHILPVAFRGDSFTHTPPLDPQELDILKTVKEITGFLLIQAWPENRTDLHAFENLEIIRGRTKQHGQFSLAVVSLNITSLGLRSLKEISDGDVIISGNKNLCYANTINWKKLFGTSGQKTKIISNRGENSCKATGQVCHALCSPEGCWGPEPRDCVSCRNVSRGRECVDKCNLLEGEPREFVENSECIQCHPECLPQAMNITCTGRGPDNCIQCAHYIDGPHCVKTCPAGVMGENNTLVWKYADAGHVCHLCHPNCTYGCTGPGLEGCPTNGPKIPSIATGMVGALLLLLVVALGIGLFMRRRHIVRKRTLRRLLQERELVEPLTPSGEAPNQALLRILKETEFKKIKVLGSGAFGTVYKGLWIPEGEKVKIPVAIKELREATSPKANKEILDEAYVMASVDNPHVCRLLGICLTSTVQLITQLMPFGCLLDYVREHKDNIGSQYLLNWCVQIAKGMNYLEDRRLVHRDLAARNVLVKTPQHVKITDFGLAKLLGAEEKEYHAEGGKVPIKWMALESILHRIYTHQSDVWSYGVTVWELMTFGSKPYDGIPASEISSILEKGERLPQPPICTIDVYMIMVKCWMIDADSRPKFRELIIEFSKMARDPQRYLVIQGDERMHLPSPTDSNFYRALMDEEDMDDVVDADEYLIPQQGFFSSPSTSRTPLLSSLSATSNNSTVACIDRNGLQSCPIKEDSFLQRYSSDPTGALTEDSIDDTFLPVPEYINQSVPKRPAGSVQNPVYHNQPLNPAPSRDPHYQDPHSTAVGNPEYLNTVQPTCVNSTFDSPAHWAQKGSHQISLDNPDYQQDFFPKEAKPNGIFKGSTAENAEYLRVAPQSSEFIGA

Row | SMILES | IC50
1 | COc1ccc(C=C2C(=O)Nc3cc(NC(C)=O)ccc32)cc1-c1cccc(NC(C)=O)c1 (mixture of isomers) [Example 63, N-[3-(3′-Acetylamino-6-methoxybiphenyl-3-ylmethylene)-2-oxo-2,3-dihydro-1H-indol-6-yl]-acetamide] | > 100 µM
2 | CC1(C)CCc2cc(C=C3C(=O)Nc4ccc(Br)cc43)ccc2O1 (racemic) [Example 34, 5-Bromo-3-(2,2-dimethylchroman-6-ylmethylene)-1,3-dihydroindol-2-one] | 38.2 µM
3 | COc1c(C(C)C)cc(/C=C2/C(=O)Nc3cc(O)ccc32)cc1C(C)C [Example 4, 3-(3,5-Diisopropyl-4-methoxybenzylidene)-6-hydroxy-1,3-dihydroindol-2-one] | 20.1 µM
4 | COc1c(C(C)C)cc(/C=C2/C(=O)Nc3ccc(C(C)=O)cc32)cc1C(C)C [Example 5, 5-Acetyl-3-(3,5-diisopropyl-4-methoxybenzylidene)-1,3dihydroindol-2-one] | 21.5 µM
5 | COC(=O)c1ccc2c(c1)/C(=C\c1cc(C(C)C)c(OC)c(C(C)C)c1)C(=O)N2 [Example 6, 3-(3,5-Diisopropyl-4-methoxybenzylidene)-2-oxo-2,3-dihydro-1H-indole-5-carboxylic acid methyl ester] | 40.5 µM
6 | COc1ccc(/C=C2/C(=O)Nc3ccccc32)cc1C(C)C [Example 7, 3-(3-Isopropyl-4-methoxybenzylidene)-1,3-dihydroindol-2-one] | 40.4 µM
7 | COc1cc(C)c(C=C2C(=O)Nc3ccccc32)cc1C(C)C [Example 8, 3-(5-Isopropyl-4-methoxy-2-methylbenzylidene)-1,3-dihydroindol-2-one] | 43.7 µM
8 | COc1cc(C)c(C=C2C(=O)Nc3ccc(Cl)cc32)cc1C(C)C [Example 9, 5-Chloro-3-(5-isopropyl-4-methoxy-2-methylbenzylidene)-1,3-dihydroindol-2-one] | 34.6 µM
9 | COc1ccc(/C=C2/C(=O)Nc3ccccc32)cc1C1CCCC1 [Example 10, 3-(3-Cyclopentyl-4-methoxybenzylidene)-1,3-dihydroindol-2-one] | 56.1 µM
10 | COc1ccc(/C=C2/C(=O)Nc3ccc(F)cc32)cc1C1CCCC1 [Example 11, 3-(3-Cyclopentyl-4-methoxybenzylidene)-5-fluoro-1,3-dihydroindol-2-one] | 72.9 µM
11 | COc1ccc(/C=C2/C(=O)Nc3ccccc32)cc1C1CCCCC1 [Example 12, 3-(3-Cyclohexyl-4-methoxybenzylidene)-1,3-dihydroindol-2-one] | 71.9 µM
12 | COc1ccc(/C=C2/C(=O)Nc3ccc(Br)cc32)cc1-c1ccccc1 [Example 13, 5-Bromo-3-(6-methoxybiphenyl-3-ylmethylene)-1,3-dihydroindol-2-one] | 30.8 µM
13 | O=C1Nc2ccc(Cl)cc2/C1=C\c1ccc2c(c1)CCO2 [Example 14, 5-Chloro-3-(2,3-dihydro-benzofuran-5-ylmethylene)-1,3-dihydroindol-2-one] | > 100 µM
14 | CC1(C)CCc2cc(/C=C3/C(=O)Nc4ccc(Cl)cc43)ccc2O1 [Example 15, 5-Chloro-3-(2,2-dimethyl-chroman-6-ylmethylene)-1,3-dihydroindol-2-one] | 46.5 µM
15 | CC(=O)Nc1ccc2c(c1)NC(=O)/C2=C/c1ccc(OCCN2CCOCC2)c(C2CCCCC2)c1 [Example 16, N-{3-[3-Cyclohexyl-4-(2-morpholin-4-ylethoxy)-benzylidene]-2-oxo-2,3-dihydro-1H-indol-6-yl}-acetamide] | 44.5 µM
16 | COc1ccc2c(c1)/C(=C\c1cc(C(C)C)c(OC)c(C(C)C)c1)C(=O)N2 [Example 17, 3-(3,5-Diisopropyl-4-methoxybenzylidene)-5-methoxy-1,3-dihydroindol-2-one] | 68 µM

Row | SMILES | IC50
17 | COc1ccc(/C=C2/C(=O)Nc3cc(NC(C)=O)ccc32)cc1-c1ccsc1 [Example 18, N-[3-(4-Methoxy-3-thiophene-3-ylbenzylidene)-2-oxo-2,3-dihydro-1H-indol-6-yl]-acetamide] | > 100 µM
18 | COc1c(C(C)C)cc(/C=C2/C(=O)Nc3ccc(C)cc32)cc1C(C)C [Example 19, 3-(3,5-Diisopropyl-4-methoxybenzylidene)-5-methyl-1,3-dihydroindol-2-one] | 34.8 µM
19 | COc1c(C(C)C)cc(/C=C2/C(=O)Nc3ccc(N)cc32)cc1C(C)C [Example 20, 5-Amino-3-(3,5-diisopropyl-4-methoxy-benzylidene)-1,3-dihydroindol-2-one] | 78.1 µM
20 | COc1c(C)cc(/C=C2/C(=O)Nc3ccc(Cl)cc32)cc1C [Example 21, 5-Chloro-3-(4-methoxy-3,5-dimethylbenzylidene)-1,3-dihydroindol-2-one] | 18.5 µM
21 | COc1c(C(C)C)cc(/C=C2/C(=O)Nc3cc(F)ccc32)cc1C(C)C [Example 22, 3-(3,5-Diisopropyl-4-methoxybenzylidene)-6-fluoro-1,3-dihydroindol-2-one] | > 100 µM
22 | CC1(C)CCc2cc(/C=C3/C(=O)Nc4ccc(F)cc43)ccc2O1 [Example 23, 3-(2,2-Dimethylchroman-6-ylmethylene)-5-fluoro-1,3-dihydroindol-2-one] | 37.7 µM
23 | CC(C)c1cc(/C=C2/C(=O)Nc3ccc(Cl)cc32)cc(C(C)C)c1OCCN1CCOCC1 [Example 24, 5-chloro-3-[3,5-diisopropyl-4-(2-morpholin-4-ylethoxy)-benzylidene]-1,3-dihydroindol-2-one] | 38.5 µM
24 | COc1ccc(/C=C2/C(=O)Nc3ccc(CCN4CCOCC4)cc32)cc1-c1ccsc1 [Example 26, 3-(4-Methoxy-3-thiophen-3-ylbenzylidene)-5-(2-morpholin-4-yl-ethyl)-1,3-dihydroindol-2-one] | 94 µM
25 | COc1cc(C)c(C=C2C(=O)Nc3cc(NC(C)=O)ccc32)cc1C(C)C [Example 27, N-[3-(5-Isopropyl-4-methoxy-2-methyl-benzylidene)-2-oxo-2,3-dihydro-1H-indol-6-yl]-acetamide] | 30.6 µM
26 | CCc1ccc2c(c1)/C(=C\c1cc(C(C)C)c(OC)c(C(C)C)c1)C(=O)N2 [Example 28, 3-(3,5-Diisopropyl-4-methoxbenzylidene)-5-ethyl-1,3-dihydroindol-2-one] | > 100 µM
27 | COc1ccc(C=C2C(=O)Nc3ccccc32)cc1-c1cccc(NC(C)=O)c1 [Example 29, N-[2′-Methoxy-5′-(2-oxo-1,2-dihydroindol-3-ylidenemethyl)-biphenyl-3-yl]-acetamide] | > 100 µM
28 | COc1cc(C)c(/C=C2/C(=O)Nc3ccc(F)cc32)cc1C(C)C [Example 30, 5-Fluoro-3-(5-isopropyl-4-methoxy-2-methyl-benzylidene)-1,3-dihydroindol-2-one] | 63.4 µM
29 | COc1ccc(/C=C2/C(=O)Nc3cc(NC(C)=O)ccc32)cc1-c1cccs1 [Example 31, N-[3-(4-Methoxy-3-thiophen-2-ylbenzylidene)-2-oxo-2,3-dihydro-1H-indol-6-yl]-acetamide] | 29.6 µM
30 | COc1c(C(C)C)cc(/C=C2/C(=O)Nc3cc(N)ccc32)cc1C(C)C [Example 32, 6-Amino-3-(3,5-diisoprotyl-4-methoxy-benzylidene)-1,3-dihydroindol-2-one] | > 100 µM
31 | CC(=O)Nc1ccc2c(c1)NC(=O)/C2=C\c1ccc2c(c1)CCC(C)(C)O2 [Example 33, N-[3-(2,2-Dimethylchroman-6-ylmethylene)-2-oxo-2,3-dihydro-1H-indol-6-yl]-acetamide] | 53.2 µM

Source: patent publication US6855730B2, “3-methylidenyl-2-indolinone modulators of protein kinase” (Sugen, Inc., priority 1998, dated 2005)
